One may read the pIC50 as the IC50 on a negative log10 scale, so that one unit is a factor of ten. As a reminder, the inhibition is how much of the control response was suppressed.

Consider 28 compounds from patent US7786152B2, “Compound” (priority 2002, dated 2010).

pIC50: −log10 of the molar value.

The target in one assay is T1, 11 β-HSD type 1 (Rattus norvegicus, UniProt P16232).
T1 construct: Both the kidneys and livers were homogenised on ice in PBS-sucrose buffer; tissue Harlan Olac (rats); host or cells: Wistar rat liver homogenate supernatant
T1 sequence (P16232 whole entry): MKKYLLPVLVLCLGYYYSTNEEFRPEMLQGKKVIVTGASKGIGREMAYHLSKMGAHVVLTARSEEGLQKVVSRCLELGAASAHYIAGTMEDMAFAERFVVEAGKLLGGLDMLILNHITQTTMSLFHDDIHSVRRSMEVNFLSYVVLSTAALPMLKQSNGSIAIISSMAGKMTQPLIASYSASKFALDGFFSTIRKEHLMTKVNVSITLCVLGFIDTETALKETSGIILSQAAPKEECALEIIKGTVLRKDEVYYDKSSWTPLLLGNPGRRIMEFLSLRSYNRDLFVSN
The experiment in a line: 11 β-HSD type 1 inhibition, rat liver homogenate, conversion E to F (radiometric TLC). The class given is biochemical. The settings on record: dose-response 1, 5, 10 and 20 μM, read-out: IC50 (11β HSD1). Here is the method:
Enzymes—Rat livers and rat kidneys were obtained from normal Wistar rats (Harlan Olac, Bicester, Oxon, UK). Both the kidneys and livers were homogenised on ice in PBS-sucrose buffer (1 g/10 ml) using an Ultra-Turrax. After the livers and kidneys were homogenised the homogenate was centrifuged for five minutes at 4000 rpm. The supernatant obtained was removed and stored in glass vials at −20° C. The amount of protein per μl of rat liver and kidney cytosol was determined using the Bradford method.
11 β-HSD type 1 is the enzyme responsible for the conversion E to F and this type of enzyme is present in rat liver. The substrate solution used in this assay contained 70,000 cpm/ml ^3H-E in PBS-sucrose and 0.5 μM of unlabelled E and co-factor NADPH (9 mg/10 ml of substrate solution). 1 ml of the substrate solution and the different amounts of rat liver homogenate was added to all tubes.
The amount of rat liver homogenate needed for an assay was determined by incubating the substrate solution with 25, 50, 100 and 150 μl for 30, 60, 90 and 120 minutes at 37° C. in a water bath with the tubes being mechanically shaken. After the incubation 50 μL of recovery solution was added, containing about 8,000 cpm/50 μL of ^14C—F and 50 μg/50 μL of unlabelled F for visualising the spot on the TLC-plate, to correct for the losses made in the next two steps. F was then extracted from the aqueous phase with 4 ml of ether (2×30 sec cycle, vortex mix). The aqueous phase was then frozen using dry-ice and the organic layer was decanted and poured into smaller tubes and evaporated. 6 drops of ether were then added to the small tubes to re-dissolve the residue which was transferred to an aluminium thin layer chromatography plate (TLC-plate). The TLC-plate was developed in a TLC tank under saturated conditions. The solvent system used was chloroform:methanol 9:1 (v/v). The F spots on the TLC-plate were visualised under UV-light and cut out from the TLC-plate (Rf=0.45). The spots from the TLC-plate were then put into scintillation vials and 0.5 ml of methanol was added to all vials to elute the radioactivity from the TLC-plate for 5 minutes. 10 ml of Ecoscint was added to the scintillation vials and they were put into the scintillation counter to count amount of product formed.
In these assays the influence of different inhibitors on the 11 β-HSD activity both in reductive (type 1) and oxidative (type 2) directions were assessed. In the reductive direction E is the substrate and F the product and visa versa in the case of oxidation. The method described here is for the oxidative direction.
The substrate solution contained about 50,000 cpm/ml ^3H—F in PBS-sucrose and 0.5 μM F. 1 ml of the substrate solution was added to each tube, the inhibitors were also added, at a 10 μM concentration, to each tube except to the “control” and “blank” tubes. 150 μL was added to all tubes except to the blanks, this was done to correct for the amount of ^3H—F spontaneously formed. The tubes were incubated for 60 minutes in a mechanically shaken water bath at 37° C. The amount of kidney liver homogenate and incubation time used resulted from the enzyme- and time-dependency assay. After incubation 50 μL of recovery was added to correct for the losses made in the next steps, containing 5000 cpm/50 μL of ^14C-E and 50 μg/50 μL of unlabelled E (to visualise the spot on the TLC-plate). The aqueous mixture was then extracted with 4 ml of ether (2×30 sec cycle, vortex mix). After freezing the aqueous phase, the ether (upper) layer was decanted into smaller tubes and evaporated at 45° C. until completely dry. The residue was then re-dissolved in 6 drops of ether and transferred to a TLC-plate. The TLC-plate was developed in chloroform:methanol (9:1 v/v) solvent system, the TLC-plate ran for about 90 minutes until the solvent front had moved about 18 cm. The position of the product E was visualised under UV-light and cut out from the TLC-plate and put into scintillation vials. […]
Take `Cc1nc2cc(NS(=O)(=O)c3cccc(Cl)c3C)ccc2s1` [compound 413]: the pIC50 is 5.18.

As for `CCCc1ccc(S(=O)(=O)Nc2ccc3sc(C)nc3c2)cc1` [compound 421], the pIC50 was 5.00.

Still in this assay, the particulars now being: read-out: % inhibition of 11β HSD1 @ 10 μM, 10 μM, typical sd ± 5%, means n=2.
With `Cc1nc2cc(NS(=O)(=O)c3ccc(Cl)cc3Cl)ccc2s1` [compound 412], the inhibition at 10 µM is 27%. Still for that read-out and setting: the same measure for `Cc1nc2cc(NS(=O)(=O)c3cccc(Cl)c3C)ccc2s1` [compound 413]: 53%. Take `CCCc1ccc(S(=O)(=O)Nc2ccc3sc(C)nc3c2)cc1` [compound 421]: the inhibition at 10 µM worked out at 60%. Same read-out and setting: the same measure for `COc1ccc(S(=O)(=O)Nc2ccc3sc(C)nc3c2)cc1` [compound 424]: 24%.

Consider `Cc1nc2cc(NS(=O)(=O)c3c(C)cccc3Cl)ccc2s1` [compound 425], for which the inhibition at 10 µM turned out to be 40%.

Turning to `Cc1nc2cc(N(C)S(=O)(=O)c3cccc(Cl)c3C)ccc2s1` [compound 469], the inhibition at 10 µM was 63%. In the case of `CCN(c1ccc2sc(C)nc2c1)S(=O)(=O)c1cccc(Cl)c1C` [compound 470], the inhibition at 10 µM is 39%. Same read-out and setting: the same measure for `Cc1nc2cc(NS(=O)(=O)c3ccc(Br)cc3)ccc2s1` [compound 519]: 48%. In the case of `Cc1nc2cc(NS(=O)(=O)c3ccc(-c4ccccc4)cc3)ccc2s1` [compound 521], the inhibition at 10 µM was 0.5%. Still for that read-out and setting: the same measure for `Cc1nc2cc(NS(=O)(=O)c3c(Cl)cc(Cl)cc3Cl)ccc2s1` [compound 522]: 37%; for `Cc1nc2cc(NS(=O)(=O)c3ccc(Br)cc3C)ccc2s1` [compound 523]: 21%. In the case of `Cc1nc2cc(NS(=O)(=O)c3cccc4cccnc34)ccc2s1` [compound 552], the inhibition at 10 µM was 18%. The same measure, in the same setting: the same measure for `Cc1nc2cc(NS(=O)(=O)c3cccc4ccccc34)ccc2s1` [compound 553]: 0.7%; for `Cc1nc2cc(NS(=O)(=O)c3cccc4c(N(C)C)cccc34)ccc2s1` [compound 554]: 69%; for `Cc1nc2cc(NS(=O)(=O)c3cc(Cl)ccc3Cl)ccc2s1` [compound 580]: 75%. For `Cc1nc2cc(NS(=O)(=O)c3ccc4c(c3)CN(C(=O)C(F)(F)F)CC4)ccc2s1` [compound 581], the inhibition at 10 µM came to 77%. Still for that read-out and setting: the figure for `COc1ccc(Cl)cc1S(=O)(=O)Nc1ccc2sc(C)nc2c1` [compound 582] is 40%. The same measure, in the same setting: the figure for `Cc1nc2cc(NS(=O)(=O)c3ccccc3C#N)ccc2s1` [compound 583] is 29%; for `COc1cc(C)ccc1S(=O)(=O)Nc1ccc2sc(C)nc2c1` [compound 584] it is 48%; for `Cc1nc2cc(NS(=O)(=O)c3ccc(Oc4ccccc4)cc3)ccc2s1` [compound 585] it is 48%.

Consider `CC(=O)c1ccccc1S(=O)(=O)Nc1ccc2sc(C)nc2c1` [compound 701], for which the inhibition at 10 µM was found to be 34%.

`Cc1nc2cc(NS(=O)(=O)c3c(C(C)C)cc(C(C)C)cc3C(C)C)ccc2s1` [compound 703]: the inhibition at 10 µM worked out at 35%. For `Cc1nc2cc(NS(=O)(=O)c3ccc(C(C)C)cc3)ccc2s1` [compound 704], the inhibition at 10 µM stood at 38%. The same measure, in the same setting: the figure for `COC(=O)c1ccccc1S(=O)(=O)Nc1ccc2sc(C)nc2c1` [compound 705] is 6%. On to `COc1c(C)c(C)c(S(=O)(=O)Nc2ccc3sc(C)nc3c2)c(C)c1C` [compound 708], for which the inhibition at 10 µM amounted to 39%. Turning to `Cc1nc2cc(NS(=O)(=O)c3ccc(C(C)(C)C)cc3)ccc2s1` [compound 709], the inhibition at 10 µM turned out to be 10%. On to `Cc1nc2cc(NS(=O)(=O)c3c(C)c(C)c(C)c(C)c3C)ccc2s1` [compound 710], for which the inhibition at 10 µM was 55%. For `CCSc1nc2ccc(NS(=O)(=O)c3cccc(Cl)c3C)cc2s1` [compound 751], the inhibition at 10 µM was 10%.
